# From publication PMC4685510, “A Cell Biologist’s Field Guide to Aurora Kinase Inhibitors” (Frontiers in Oncology, 2015)
# Key:
# Assay in all cases: biochemical
# Assay type in all cases: biochemical
# [1] = target: 363 human kinases (including Aurora A/B/C) (Homo sapiens, UniProt P24723); conditions: PKCeta; for remaining activity at 0.1 µM: 100 nM; for remaining activity at 0.1 µM / remaining activity at 0.5 µM: read-out: % Enzyme Activity (relative to DMSO controls)
# Excerpt: (§1) However, the Aurora A/B selectivity ratios derived from our in vitro and in vivo data can be compared to prioritize inhibitors.
# [2] = target: 363 human kinases (including Aurora A/B/C) (Homo sapiens, UniProt P51451); conditions: BLK, [ATP] 10 µM; for remaining activity at 0.1 µM: 100 nM; for remaining activity at 0.1 µM / remaining activity at 0.5 µM: read-out: % Enzyme Activity (relative to DMSO controls)
# Excerpt: as §1
# [3] = target: T1, 363 human kinases (including Aurora A/B/C) (Homo sapiens, UniProt Q13043); conditions: MST1/STK4; for remaining activity at 0.1 µM: 100 nM; for remaining activity at 0.1 µM / remaining activity at 0.5 µM: read-out: % Enzyme Activity (relative to DMSO controls)
# T1 sequence (Q13043 1-487): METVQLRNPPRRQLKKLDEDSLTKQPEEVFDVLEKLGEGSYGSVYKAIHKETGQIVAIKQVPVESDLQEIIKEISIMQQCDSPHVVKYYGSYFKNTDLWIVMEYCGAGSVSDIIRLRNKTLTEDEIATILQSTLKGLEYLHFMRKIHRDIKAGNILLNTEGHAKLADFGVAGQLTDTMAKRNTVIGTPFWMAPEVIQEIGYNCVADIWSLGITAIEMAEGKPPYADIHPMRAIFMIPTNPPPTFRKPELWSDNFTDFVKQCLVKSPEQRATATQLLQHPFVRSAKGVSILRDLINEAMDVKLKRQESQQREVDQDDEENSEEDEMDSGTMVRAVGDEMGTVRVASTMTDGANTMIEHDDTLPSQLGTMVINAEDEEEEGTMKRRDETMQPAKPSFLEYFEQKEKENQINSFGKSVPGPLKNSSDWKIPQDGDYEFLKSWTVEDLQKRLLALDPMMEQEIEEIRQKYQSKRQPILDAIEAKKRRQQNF
# Excerpt: as §1
# [4] = target: T2, 363 human kinases (including Aurora A/B/C) (Homo sapiens, UniProt Q15139); conditions: PKCmu/PRKD1; for remaining activity at 0.1 µM: 100 nM; for remaining activity at 0.1 µM / remaining activity at 0.5 µM: read-out: % Enzyme Activity (relative to DMSO controls)
# T2 sequence (Q15139 1-912): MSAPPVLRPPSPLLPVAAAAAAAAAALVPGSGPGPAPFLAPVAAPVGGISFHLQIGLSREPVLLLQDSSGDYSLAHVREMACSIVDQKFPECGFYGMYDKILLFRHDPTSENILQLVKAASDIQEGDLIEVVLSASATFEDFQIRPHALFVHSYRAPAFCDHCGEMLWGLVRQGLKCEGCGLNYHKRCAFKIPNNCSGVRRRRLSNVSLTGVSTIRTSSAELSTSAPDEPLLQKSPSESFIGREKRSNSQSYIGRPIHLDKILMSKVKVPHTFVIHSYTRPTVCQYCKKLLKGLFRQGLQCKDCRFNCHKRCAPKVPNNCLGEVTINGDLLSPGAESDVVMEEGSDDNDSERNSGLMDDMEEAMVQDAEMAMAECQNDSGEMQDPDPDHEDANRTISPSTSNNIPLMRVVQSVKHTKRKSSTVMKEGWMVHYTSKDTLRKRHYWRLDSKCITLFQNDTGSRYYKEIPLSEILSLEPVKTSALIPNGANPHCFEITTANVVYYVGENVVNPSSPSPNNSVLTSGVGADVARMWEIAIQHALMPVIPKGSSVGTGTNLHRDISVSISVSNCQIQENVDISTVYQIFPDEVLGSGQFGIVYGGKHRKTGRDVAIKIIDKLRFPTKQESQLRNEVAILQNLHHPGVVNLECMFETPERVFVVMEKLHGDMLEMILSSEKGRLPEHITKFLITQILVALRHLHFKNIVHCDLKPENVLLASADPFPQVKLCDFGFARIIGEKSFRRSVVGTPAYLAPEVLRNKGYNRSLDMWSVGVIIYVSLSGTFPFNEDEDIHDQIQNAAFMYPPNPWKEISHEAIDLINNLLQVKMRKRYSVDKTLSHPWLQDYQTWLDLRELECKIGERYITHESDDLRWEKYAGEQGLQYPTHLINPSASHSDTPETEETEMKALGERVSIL
# Excerpt: as §1
# [5] = target: 363 human kinases (including Aurora A/B/C) (Homo sapiens, UniProt Q16513); conditions: PKN2/PRK2; for remaining activity at 0.1 µM: 100 nM; for remaining activity at 0.1 µM / remaining activity at 0.5 µM: read-out: % Enzyme Activity (relative to DMSO controls)
# Excerpt: as §1
# [6] = target: T3, 363 human kinases (including Aurora A/B/C) (Homo sapiens, UniProt Q86SG6); conditions: NEK8; for remaining activity at 0.1 µM: 100 nM; for remaining activity at 0.1 µM / remaining activity at 0.5 µM: read-out: % Enzyme Activity (relative to DMSO controls)
# T3 sequence (Q86SG6 1-692): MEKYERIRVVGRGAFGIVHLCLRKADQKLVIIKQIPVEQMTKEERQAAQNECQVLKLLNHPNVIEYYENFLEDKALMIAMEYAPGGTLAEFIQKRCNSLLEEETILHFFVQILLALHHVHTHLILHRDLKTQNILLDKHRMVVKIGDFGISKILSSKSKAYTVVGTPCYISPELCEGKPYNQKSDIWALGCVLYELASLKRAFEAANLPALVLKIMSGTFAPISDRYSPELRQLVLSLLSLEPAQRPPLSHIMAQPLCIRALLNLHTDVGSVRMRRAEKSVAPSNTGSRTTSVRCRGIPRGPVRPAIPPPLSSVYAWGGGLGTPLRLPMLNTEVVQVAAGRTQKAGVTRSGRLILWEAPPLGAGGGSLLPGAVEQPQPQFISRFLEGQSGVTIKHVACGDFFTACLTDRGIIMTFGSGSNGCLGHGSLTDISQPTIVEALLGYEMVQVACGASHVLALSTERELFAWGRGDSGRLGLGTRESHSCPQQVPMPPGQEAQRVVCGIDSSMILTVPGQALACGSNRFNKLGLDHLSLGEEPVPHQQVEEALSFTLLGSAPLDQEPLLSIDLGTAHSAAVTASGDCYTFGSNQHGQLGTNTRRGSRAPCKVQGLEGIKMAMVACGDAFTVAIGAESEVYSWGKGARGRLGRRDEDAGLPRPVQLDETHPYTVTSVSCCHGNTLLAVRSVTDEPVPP
# Excerpt: as §1
# Chain of 363 human kinases (including Aurora A/B/C) (Homo sapiens, UniProt P24723) (P24723 whole entry): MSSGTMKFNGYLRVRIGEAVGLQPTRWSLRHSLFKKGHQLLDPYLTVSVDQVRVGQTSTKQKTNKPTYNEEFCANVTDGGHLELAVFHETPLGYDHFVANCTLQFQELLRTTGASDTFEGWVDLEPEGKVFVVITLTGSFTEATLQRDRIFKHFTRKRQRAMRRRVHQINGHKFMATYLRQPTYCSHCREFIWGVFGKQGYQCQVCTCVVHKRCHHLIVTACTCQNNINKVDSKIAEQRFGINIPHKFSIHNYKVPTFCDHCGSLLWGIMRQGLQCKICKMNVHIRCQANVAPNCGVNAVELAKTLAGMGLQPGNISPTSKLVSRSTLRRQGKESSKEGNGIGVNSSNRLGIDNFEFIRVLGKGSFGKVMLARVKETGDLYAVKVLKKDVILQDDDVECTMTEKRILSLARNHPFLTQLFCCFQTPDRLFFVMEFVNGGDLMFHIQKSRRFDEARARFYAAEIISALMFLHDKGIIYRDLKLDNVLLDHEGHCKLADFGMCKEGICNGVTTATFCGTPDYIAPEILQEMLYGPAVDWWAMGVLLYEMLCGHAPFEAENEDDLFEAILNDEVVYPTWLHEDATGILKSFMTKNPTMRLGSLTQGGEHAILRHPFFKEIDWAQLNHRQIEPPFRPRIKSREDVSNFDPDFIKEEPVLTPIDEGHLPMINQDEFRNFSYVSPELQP
# Chain of 363 human kinases (including Aurora A/B/C) (Homo sapiens, UniProt P51451) (P51451 whole entry): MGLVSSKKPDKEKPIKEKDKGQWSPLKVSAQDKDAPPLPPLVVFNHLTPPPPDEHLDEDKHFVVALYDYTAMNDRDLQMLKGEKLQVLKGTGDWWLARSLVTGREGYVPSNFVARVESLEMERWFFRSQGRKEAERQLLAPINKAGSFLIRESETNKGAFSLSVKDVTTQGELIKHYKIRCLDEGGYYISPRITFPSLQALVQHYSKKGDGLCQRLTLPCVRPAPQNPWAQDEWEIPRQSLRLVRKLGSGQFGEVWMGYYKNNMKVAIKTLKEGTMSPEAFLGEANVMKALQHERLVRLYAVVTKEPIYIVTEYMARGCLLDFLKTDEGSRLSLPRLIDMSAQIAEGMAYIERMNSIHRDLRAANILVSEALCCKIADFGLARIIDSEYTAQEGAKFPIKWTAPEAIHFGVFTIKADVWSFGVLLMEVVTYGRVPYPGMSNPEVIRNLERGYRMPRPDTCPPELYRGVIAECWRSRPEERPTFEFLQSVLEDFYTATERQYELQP
# Chain of 363 human kinases (including Aurora A/B/C) (Homo sapiens, UniProt Q16513) (Q16513 whole entry): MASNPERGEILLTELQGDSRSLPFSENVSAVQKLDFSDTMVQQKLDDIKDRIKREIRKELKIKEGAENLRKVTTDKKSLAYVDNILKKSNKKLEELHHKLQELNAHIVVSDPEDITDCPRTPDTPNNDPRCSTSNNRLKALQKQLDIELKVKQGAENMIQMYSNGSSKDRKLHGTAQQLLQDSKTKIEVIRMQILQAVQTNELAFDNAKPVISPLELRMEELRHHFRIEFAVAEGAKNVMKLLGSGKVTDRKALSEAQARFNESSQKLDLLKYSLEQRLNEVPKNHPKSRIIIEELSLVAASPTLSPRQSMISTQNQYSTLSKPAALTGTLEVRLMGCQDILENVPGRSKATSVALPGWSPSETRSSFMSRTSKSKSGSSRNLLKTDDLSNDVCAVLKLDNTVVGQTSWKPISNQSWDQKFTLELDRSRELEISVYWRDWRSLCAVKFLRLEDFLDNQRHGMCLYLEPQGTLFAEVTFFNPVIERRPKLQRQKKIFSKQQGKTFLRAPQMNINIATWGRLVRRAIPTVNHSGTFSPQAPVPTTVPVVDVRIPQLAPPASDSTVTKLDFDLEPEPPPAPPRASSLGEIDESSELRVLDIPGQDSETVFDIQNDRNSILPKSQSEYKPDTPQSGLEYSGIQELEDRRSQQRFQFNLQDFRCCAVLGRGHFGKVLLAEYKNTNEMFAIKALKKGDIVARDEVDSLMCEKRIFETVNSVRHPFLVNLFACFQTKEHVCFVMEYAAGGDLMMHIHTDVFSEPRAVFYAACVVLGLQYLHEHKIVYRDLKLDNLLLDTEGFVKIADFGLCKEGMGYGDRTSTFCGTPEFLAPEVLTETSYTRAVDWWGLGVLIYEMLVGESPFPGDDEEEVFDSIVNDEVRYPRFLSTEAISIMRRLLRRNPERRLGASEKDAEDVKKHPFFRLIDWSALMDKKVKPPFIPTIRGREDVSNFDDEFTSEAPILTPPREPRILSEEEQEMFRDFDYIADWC
smiles,measurement,setting,value
O=C(O)[C@]1(Cc2cccc(Nc3nccs3)n2)CC[C@@H](Oc2cccc(Cl)c2F)CC1 [MK-5108],remaining activity at 0.1 µM,[1],134%
same,remaining activity at 0.5 µM,[1]; 500 nM,115%
same,remaining activity at 0.1 µM,[2],54.8%
same,remaining activity at 0.5 µM,[2]; 500 nM,17.1%
same,remaining activity at 0.1 µM,[3],81.8%
same,remaining activity at 0.5 µM,[3]; 500 nM,65.6%
same,remaining activity at 0.1 µM,[4],108%
same,remaining activity at 0.5 µM,[4]; 500 nM,99%
same,remaining activity at 0.1 µM,[5],108%
same,remaining activity at 0.5 µM,[5]; 500 nM,108%
same,remaining activity at 0.1 µM,[6],81.2%
same,remaining activity at 0.5 µM,[6]; 500 nM,82.2%
O=C(c1cccc(Cl)c1F)N1CCN(Cc2cccc(Nc3nccs3)n2)CC1 [MK-8745],% Enzyme Activity (relative to DMSO controls),[1]; 500 nM,164.83%
same,remaining activity at 0.5 µM,[1]; 500 nM,166%
same,% Enzyme Activity (relative to DMSO controls),[2]; 500 nM,72.45%
same,remaining activity at 0.5 µM,[2]; 500 nM,72.7%
same,% Enzyme Activity (relative to DMSO controls),[3]; 500 nM,46.49%
same,remaining activity at 0.5 µM,[3]; 500 nM,46.6%
same,% Enzyme Activity (relative to DMSO controls),[4]; 500 nM,97.14%
same,remaining activity at 0.5 µM,[4]; 500 nM,98.5%
same,% Enzyme Activity (relative to DMSO controls),[5]; 500 nM,103.16%
same,remaining activity at 0.5 µM,[5]; 500 nM,104%
same,% Enzyme Activity (relative to DMSO controls),[6]; 500 nM,91.43%
same,remaining activity at 0.5 µM,[6]; 500 nM,91.6%
CCn1cc(-c2ccnc3[nH]c(-c4cccc(CN(C)C)c4)cc23)c(-c2ccc(NC(=O)N(C)C)cc2)n1 [GSK1070916],remaining activity at 0.1 µM,[1],103%
same,remaining activity at 0.1 µM,[2],85%
same,remaining activity at 0.1 µM,[3],105%
same,remaining activity at 0.1 µM,[4],85.4%
same,remaining activity at 0.1 µM,[5],115%
same,remaining activity at 0.1 µM,[6],97.8%
